We go through 28 compounds from the Deep4Chem optical property database.

This data set is described as follows: photoluminescence quantum yield (fraction); solvent given as SMILES.

Where the note is “in c1cc(-n2c3ccccc3c3ccccc32)cc(-n2c3ccccc3c3ccccc32)c1”, `O=C(c1ccccc1)c1cc2ccc1CCc1ccc(c(-c3ccc(N(c4ccccc4)c4ccccc4)cc3)c1)CC2` had a photoluminescence quantum yield of 0.15.

Regarding `Cc1ccc2c(c1)C1(c3ccccc3-c3ccccc31)c1cc(C)ccc1N2c1ccc(-c2ncccn2)cc1`, where the note is “in O=P(c1ccccc1)(c1ccccc1)c1ccc2oc3ccc(P(=O)(c4ccccc4)c4ccccc4)cc3c2c1”, the photoluminescence quantum yield stood at 0.91.

For `Cc1cc(C)c(C2=[N+]3C(=Cc4c(C)cc(C)n4[B-]3(F)F)c3ccccc32)[nH]1`, the photoluminescence quantum yield was 0.06 (in C1CCOC1); 0.02 (in CC#N); 0.85 (in CCCCCC); 0.03 (in CO); 0.81 (in Cc1ccccc1); 0.61 (in ClCCl).

`c1ccc(-c2ccc(-c3ccccc3)s2)cc1`: where the note is “in C1CCOC1”, the photoluminescence quantum yield was 0.07.

In the case of `CN1c2cc3nc4cc(F)c(F)cc4nc3cc2N(C)C1(C)C`, the photoluminescence quantum yield (in CCO) stood at 0.8.

Where the note is “in CCCCCC”, `CC(C)[Si](C#Cc1c2cc3ccccc3cc2c(C#C[Si](C(C)C)(C(C)C)C(C)C)c2nc3c(ccc4cc5ccccc5cc43)nc12)(C(C)C)C(C)C` registered a photoluminescence quantum yield of 0.26.

Regarding `Cc1ccc(C2=C3C=CC(C#Cc4ccccc4)=[N+]3[B-](F)(F)n3c(Cl)ccc32)cc1`, the photoluminescence quantum yield (in C1CCCCC1) is 1; the photoluminescence quantum yield (in C1CCOC1) is 0.84; the photoluminescence quantum yield (in C1COCCO1) was determined as 0.97; the photoluminescence quantum yield (in CCOC(C)=O) was found to be 0.83; the photoluminescence quantum yield (in CO) was 0.98; the photoluminescence quantum yield (in Cc1ccccc1) was 0.91. Where the note is “in ClC(Cl)Cl”, this compound displayed a photoluminescence quantum yield of 0.95.

`FC(F)(F)c1cc2n(n1)[B-]1(c3ccccc3Oc3ccccc31)[n+]1ccc3ccccc3c1-2`: the photoluminescence quantum yield runs as follows: (in C1CCCCC1) 0.0026; (in Cc1ccccc1) 0.0027; (in ClCCl) 0.0029.

Compound `[O-][n+]1c(/C=C/C=C/c2ccccc2)nc(N2CCOCC2)c2c1CCCC2` showed a photoluminescence quantum yield (in ClCCl) of 0.06.

In the case of `CCCCCCC1(CCCCCC)c2cc(-c3nc(-c4ccc5c(c4)C(CCCCCC)(CCCCCC)c4cc(N6c7ccccc7Oc7ccccc76)ccc4-5)nc(-c4ccc5c(c4)C(CCCCCC)(CCCCCC)c4cc(N6c7ccccc7Oc7ccccc76)ccc4-5)n3)ccc2-c2ccc(N3c4ccccc4Oc4ccccc43)cc21`, the photoluminescence quantum yield is, setting by setting: (in C1CCOC1) 0.02; (in CCCCCC) 0.52; (in Cc1ccccc1) 0.45; (in ClCCl) 0.01.

As to `Cc1ccccc1/C(C#N)=C/c1ccc(N(C)C)cc1`, the photoluminescence quantum yield amounted to 0.011 (in C1CCOC1); 0.01 (in C1COCCO1); 0.014 (in CC#N); 0.012 (in CCCCCC); 0.008 (in CCCCCCC); 0.01 (in CCCCCO). The photoluminescence quantum yield worked out at 0.006 (in CCCCO); 0.008 (in CCCO); 0.006 (in CCO); 0.007 (in CCOC(C)=O); 0.015 (in CN(C)C=O); 0.005 (in CO). The photoluminescence quantum yield is, setting by setting: (in CS(C)=O) 0.011; (in Cc1ccccc1) 0.021; (in ClC(Cl)Cl) 0.009.

In the case of `COc1ccc2cc(/C=C/C3=C4CCc5ccccc5C4=[O+][B-](F)(F)O3)ccc2c1`, under “in ClCCl”, the photoluminescence quantum yield worked out at 0.33.

Where the note is “in ClC(Cl)Cl”, `CCCCc1ccc(-n2c3c4ccc(C(F)(F)F)cc4nc(-c4ccc(C#N)cc4)c3c3c2c2c(-c4ccc(C#N)cc4)nc4cc(C(F)(F)F)ccc4c2n3-c2ccc(CCCC)cc2)cc1` yielded a photoluminescence quantum yield of 0.14.

Take `N#Cc1nc2c(nc1C#N)C1c3ccc(N(c4ccccc4)c4ccccc4)cc3C2c2ccc(N(c3ccccc3)c3ccccc3)cc21`: the photoluminescence quantum yield by setting is: (in C1CCCCC1) 0.55; (in CC#N) 0.001; (in Cc1ccccc1) 0.25; (in ClCCl) 0.002.

Take `c1ccc2c(c1)c1ccccc1n2-c1ccc(-c2ccc(-c3ccc(-n4c5ccccc5c5ccccc54)nc3-n3c4ccccc4c4ccccc43)nn2)c(-n2c3ccccc3c3ccccc32)n1`: where the note is “in Cc1ccccc1”, the photoluminescence quantum yield was found to be 0.36.

Take `c1ccc(-c2nc3c4ccccc4c4ccccc4c3n2-c2cccc(-c3nc4c5ccccc5c5ccccc5c4n3-c3ccccc3)c2)cc1`: under “in Cc1ccccc1”, the photoluminescence quantum yield was 0.75.

Take `CC(=O)Nc1ccc2c3cccc4cccc(c5cccc1c52)c43`: the photoluminescence quantum yield is, setting by setting: (in C1COCCO1) 0.56; (in CC#N) 0.45; (in CCCCOCCCC) 0.46; (in CCOC(C)=O) 0.5.

For `CC(C)[Si](C#Cc1ccc(C#C[Si](C(C)C)(C(C)C)C(C)C)c2nc3ccccc3nc12)(C(C)C)C(C)C`, the photoluminescence quantum yield (in ClCCl) was 0.02.

As to `CCCCOc1ccc(-c2oc3cc4n(c3c2-c2ccc(OCCCC)cc2)[B-](F)(F)[N+]2=Cc3cc5oc(-c6ccc(OCCCC)cc6)c(-c6ccc(OCCCC)cc6)c5n3[B-](F)(F)[N+]2=C4)cc1`, the photoluminescence quantum yield (in C1CCOC1) was 0.44; the photoluminescence quantum yield (in CN(C)C=O) is 0.32; the photoluminescence quantum yield (in CS(C)=O) is 0.31; the photoluminescence quantum yield (in Cc1ccccc1) is 0.42; the photoluminescence quantum yield (in ClC(Cl)Cl) amounted to 0.43; the photoluminescence quantum yield (in ClCCl) stood at 0.43.

As to `CCn1c2ccccc2c2cc(/C=C/c3cc(/C=C/c4ccc5c(c4)c4ccccc4n5CC)ncn3)ccc21`, the photoluminescence quantum yield reads like this: (in C1CCOC1) 0.25; (in CCOC(C)=O) 0.25; (in CN(C)C=O) 0.42; (in Cc1ccccc1) 0.19; (in ClCCl) 0.29.

Turning to `COC(=O)c1cc(=O)n(C)c2cc(-c3cc(OC)c(OC)c(OC)c3)sc12`, the photoluminescence quantum yield stood at 0.38 (in CC#N) and 0.53 (in ClCCl).

Turning to `CC[N+](CC)=c1ccc2c(-c3ccccc3C(=O)O)c3cc4c(-c5ccccc5C(=O)O)c5ccc(=[N+](CC)CC)cc-5oc4cc3oc-2c1`, the photoluminescence quantum yield (in ClC(Cl)Cl) came to 0.17.

As for `COC(=O)C(Cc1ccc2oc(-c3ccncc3)nc2c1)NC(=O)OC(C)(C)C` (stereo not given), the photoluminescence quantum yield worked out at 0.01 (in CC1CCCCC1), 0.21 (in CC#N) and 0.4 (in CO).

The compound `C[Si]1(C)c2cc(-c3cccs3)ccc2C=Cc2ccc(-c3cccs3)cc21` came in with a photoluminescence quantum yield (in ClCCl) of 0.77.

Regarding `CCOC(=O)C(C(=O)OCC)C1=[N+]2C(=C(c3ccc(C)cc3)c3ccc(C(C(=O)OCC)C(=O)OCC)n3[B-]2(F)F)C=C1`, the photoluminescence quantum yield (in C1CCCCC1) came to 0.62; the photoluminescence quantum yield (in C1CCOC1) came to 0.46; the photoluminescence quantum yield (in CCOC(C)=O) was found to be 0.38; the photoluminescence quantum yield (in CO) came to 0.35; the photoluminescence quantum yield (in Cc1ccccc1) is 0.89; the photoluminescence quantum yield (in ClC(Cl)Cl) was determined as 0.59.

Turning to `CC(C)(C)c1ccc2c3c(c4ccc(C(C)(C)C)cc4c2c1)=[N+]1C(=C(c2ccccc2)c2c(Br)c4c5ccc(C(C)(C)C)cc5c5cc(C(C)(C)C)ccc5c4n2[B-]1(F)F)C=3Br`, the photoluminescence quantum yield stood at 0.03 (in C1CCCCC1); 0.02 (in C1CCOC1); 0.02 (in CC#N); 0.03 (in Cc1ccccc1); 0.03 (in ClCCl).

Consider `CN(C)c1ccc(/C=C/c2cc(/C=C/c3ccc(N(C)C)cc3)nc(/C=C/c3ccc(N(c4ccccc4)c4ccccc4)cc3)n2)cc1`, for which the photoluminescence quantum yield (in ClCCl) turned out to be 0.59.

Take `c1cc2c3c(c1)-c1ccc4c5c(ccc(c15)B3c1ccc3c5c(ccc-2c15)CC3)CC4`: under “in Cc1ccccc1”, the photoluminescence quantum yield was 0.79.
